This passage reports IC50 and inhibition results from patent publication US9695154B2, “Heteroaryl inhibitors of sumo activating enzyme” (MILLENNIUM PHARMACEUTICALS, INC., priority 2013, dated 2017).

This experiment addresses T1, recombinant human SAE enzyme (Homo sapiens, UniProt Q9UBT2).
T1 sequence (Q9UBT2 1-640): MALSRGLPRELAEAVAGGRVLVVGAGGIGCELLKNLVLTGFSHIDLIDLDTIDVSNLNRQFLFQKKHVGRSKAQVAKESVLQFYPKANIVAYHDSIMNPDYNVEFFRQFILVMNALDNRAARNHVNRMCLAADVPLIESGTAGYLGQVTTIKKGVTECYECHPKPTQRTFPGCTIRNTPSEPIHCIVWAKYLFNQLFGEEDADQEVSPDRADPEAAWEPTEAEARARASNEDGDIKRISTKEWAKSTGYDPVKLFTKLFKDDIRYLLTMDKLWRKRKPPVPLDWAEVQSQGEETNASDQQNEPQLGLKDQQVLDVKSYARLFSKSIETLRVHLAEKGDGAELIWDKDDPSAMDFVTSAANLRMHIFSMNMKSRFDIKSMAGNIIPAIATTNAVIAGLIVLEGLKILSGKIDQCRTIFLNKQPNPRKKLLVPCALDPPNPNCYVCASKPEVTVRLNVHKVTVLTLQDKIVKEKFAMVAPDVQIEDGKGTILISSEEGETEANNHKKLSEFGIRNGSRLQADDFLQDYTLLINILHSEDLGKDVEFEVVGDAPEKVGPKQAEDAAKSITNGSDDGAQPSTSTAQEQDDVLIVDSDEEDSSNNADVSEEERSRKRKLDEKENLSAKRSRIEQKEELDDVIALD
T1 sequence (Q9UBE0 1-346 partner): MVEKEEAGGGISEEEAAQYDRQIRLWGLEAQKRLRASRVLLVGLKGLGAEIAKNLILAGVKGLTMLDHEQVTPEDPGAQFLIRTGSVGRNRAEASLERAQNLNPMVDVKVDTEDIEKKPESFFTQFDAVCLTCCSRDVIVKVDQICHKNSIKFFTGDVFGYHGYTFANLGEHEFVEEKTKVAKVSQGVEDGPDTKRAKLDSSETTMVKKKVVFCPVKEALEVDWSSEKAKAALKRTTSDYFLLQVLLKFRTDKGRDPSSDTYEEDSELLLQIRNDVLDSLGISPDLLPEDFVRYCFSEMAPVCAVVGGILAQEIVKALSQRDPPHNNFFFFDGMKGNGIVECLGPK
Briefly: SAE HTRF Enzyme Assay. Type of experiment: biochemical. The conditions noted are these: for IC50: class symbols A-C; for inhibition at 0.111 µM: compound concentration 0.111 μM, read-out: Percent Inhibition. A digest of the protocol:
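Measured as FRET after a 2 h antibody step: SAE (0.11 nM) thioester transfer of Sumo-Flag to Ubc9-GST, 0.5 μM ATP, 24° C for 105 min, quenched with 20 mM EDTA. Output is IC50 or percent inhibition at a single concentration.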

Turning to `NS(=O)(=O)OC[C@H]1C[C@@H](Nc2ncncc2C(=O)c2ccn(Cc3ccccc3Cl)n2)[C@H](O)[C@@H]1O` [Compound I-193, ((1R,2R,3S,4R)-4-((5-(1-(2-Chlorobenzyl)-1H-pyrazole-3-carbonyl)pyrimidin-4-yl)amino)-2,3-dihydroxycyclopentyl)methyl sulfamate], the IC50 is below 10 nM and the inhibition at 0.111 µM turned out to be 99%.

For `NS(=O)(=O)OC[C@H]1C[C@@H](Nc2ncncc2C(=O)c2ccn(Cc3ccc(F)cc3Cl)n2)[C@H](O)[C@@H]1O` [Compound I-194, {(1R,2R,3S,4R)-4-[(5-{[1-(2-chloro-4-fluorobenzyl)-1H-pyrazol-3-yl]carbonyl}pyrimidin-4-yl)amino]-2,3-dihydroxycyclopentyl}methyl sulfamate], the IC50 was below 10 nM and the inhibition at 0.111 µM amounted to 100%.

Take `CC#CCn1ccc(C(=O)c2cncnc2N[C@@H]2C[C@H](COS(N)(=O)=O)[C@@H](O)[C@@H]2F)c1` [Compound I-195, {(1R,2R,3R,4R)-4-[(5-{[1-(but-2-yn-1-yl)-1H-pyrrol-3-yl]carbonyl}pyrimidin-4-yl)amino]-3-fluoro-2-hydroxycyclopentyl}methyl sulfamate]: the IC50 was in the range of 10 to 100 nM and the inhibition at 0.111 µM was found to be 90%.

In the case of `NS(=O)(=O)OC[C@H]1C[C@@H](Nc2ncncc2C(=O)c2ccn(C#Cc3ccccc3)c2)C[C@@H]1O` [Compound I-196, {(1R,2S,4R)-2-Hydroxy-4-[(5-{[1-(phenylethynyl)-1H-pyrrol-3-yl]carbonyl}pyrimidin-4-yl)amino]cyclopentyl}methyl sulfamate], the IC50 was 100 to 1000 nM and the inhibition at 0.111 µM amounted to 33%.

Take `Cc1cc(C(=O)c2cncnc2N[C@@H]2C[C@H](COS(N)(=O)=O)[C@@H](O)[C@@H]2F)nn1Cc1ccc(C(F)(F)F)o1` [Compound I-197, [(1R,2R,3R,4R)-3-Fluoro-2-hydroxy-4-({5-[(5-methyl-1-{[5-(trifluoromethyl)-2-furyl]methyl}-1H-pyrazol-3-yl)carbonyl]pyrimidin-4-yl}amino)cyclopentyl]methyl sulfamate]: the IC50 is below 10 nM and the inhibition at 0.111 µM came to 99%.

Consider `Cc1ccc(Cn2ccc(C(=O)c3cncnc3N[C@@H]3C[C@H](COS(N)(=O)=O)[C@@H](O)[C@H]3O)n2)cc1F` [Compound I-198, {(1R,2R,3S,4R)-4-[(5-{[1-(3-fluoro-4-methylbenzyl)-1H-pyrazol-3-yl]carbonyl}pyrimidin-4-yl)amino]-2,3-dihydroxycyclopentyl}methyl sulfamate], for which the IC50 is below 10 nM and the inhibition at 0.111 µM was above 99%.

With `NS(=O)(=O)OC[C@H]1C[C@@H](Nc2ncncc2C(=O)c2ccn(CC#Cc3ccco3)n2)C[C@@H]1O` [Compound I-199, [(1R,2S,4R)-4-{[5-({1-[3-(2-furyl)prop-2-yn-1-yl]-1H-pyrazol-3-yl}carbonyl)pyrimidin-4-yl]amino}-2-hydroxycyclopentyl]methyl sulfamate], the IC50 is below 10 nM and the inhibition at 0.111 µM worked out at 94%.

For `NS(=O)(=O)OC[C@H]1C[C@@H](Nc2ncncc2C(=O)c2ccn(/C=C\c3ccccc3)c2)C[C@@H]1O` [Compound I-200, [(1R,2S,4R)-2-Hydroxy-4-{[5-({1-[(Z)-2-phenylvinyl]-1H-pyrrol-3-yl}carbonyl)pyrimidin-4-yl]amino}cyclopentyl]methyl sulfamate], the IC50 is below 10 nM and the inhibition at 0.111 µM came out at 98%.

`NS(=O)(=O)OC[C@H]1C[C@@H](Nc2ccncc2C(=O)c2ccn(Cc3cccc(Cl)c3)c2)C[C@@H]1O` [Compound I-201, {(1R,2S,4R)-4-[(3-{[1-(3-chlorobenzyl)-1H-pyrrol-3-yl]carbonyl}pyridin-4-yl)amino]-2-hydroxycyclopentyl}methyl sulfamate]: the IC50 is below 10 nM and the inhibition at 0.111 µM came to 98%.

Take `NS(=O)(=O)OC[C@H]1C[C@@H](Nc2ncncc2C(=O)c2ccn(Cc3c(F)c(F)c(F)c(F)c3F)n2)C[C@@H]1O` [Compound I-202, {(1R,2S,4R)-2-hydroxy-4-[(5-{[1-(pentafluorobenzyl)-1H-pyrazol-3-yl]carbonyl}pyrimidin-4-yl)amino]cyclopentyl}methyl sulfamate]: the IC50 was 10 to 100 nM and the inhibition at 0.111 µM amounted to 83%.

For `NS(=O)(=O)OC[C@H]1C[C@@H](Nc2ncncc2C(=O)c2ccn(Cc3ccccc3)n2)C(F)(F)[C@@H]1O` [Compound I-203, [(1R,2R,4R)-4-({5-[(1-benzyl-1H-pyrazol-3-yl)carbonyl]pyrimidin-4-yl}amino)-3,3-difluoro-2-hydroxycyclopentyl]methyl sulfamate], the concentration for half-maximal inhibition (IC50) is below 10 nM and the inhibition at 0.111 µM is 94%.

On to `NS(=O)(=O)OC[C@H]1C[C@@H](Nc2ncncc2C(=O)c2ccn(Cc3ccc(Cl)c(Br)c3)n2)[C@H](O)[C@@H]1O` [Compound I-204, {(1R,2R,3S,4R)-4-[(5-{[1-(3-bromo-4-chlorobenzyl)-1H-pyrazol-3-yl]carbonyl}pyrimidin-4-yl)amino]-2,3-dihydroxycyclopentyl}methyl sulfamate], for which the IC50 was below 10 nM and the inhibition at 0.111 µM was 99%.

In the case of `NS(=O)(=O)OC[C@H]1C[C@@H](Nc2ncncc2C(=O)c2ccn(-c3ccccc3)n2)C[C@@H]1O` [Compound I-205, [(1R,2S,4R)-2-Hydroxy-4-({5-[(1-phenyl-1H-pyrazol-3-yl)carbonyl]pyrimidin-4-yl}amino)cyclopentyl]methyl sulfamate], the IC50 lay within 10 to 100 nM and the inhibition at 0.111 µM worked out at 60%.

Regarding `NS(=O)(=O)OC[C@H]1C[C@@H](Nc2ncncc2C(=O)c2ccn(Cc3ccccc3Cl)n2)C[C@@H]1O` [Compound I-206, {(1R,2S,4R)-4-[(5-{[1-(2-chlorobenzyl)-1H-pyrazol-3-yl]carbonyl}pyrimidin-4-yl)amino]-2-hydroxycyclopentyl}methyl sulfamate], the IC50 was below 10 nM and the inhibition at 0.111 µM was found to be 96%.

Turning to `NS(=O)(=O)OC[C@H]1C[C@@H](Nc2ncncc2C(=O)c2ccn(Cc3cc(Br)ccc3Cl)n2)[C@@H](F)[C@@H]1O` [Compound I-207, {(1R,2R,3R,4R)-4-[(5-{[1-(5-bromo-2-chlorobenzyl)-1H-pyrazol-3-yl]carbonyl}pyrimidin-4-yl)amino]-3-fluoro-2-hydroxycyclopentyl}methyl sulfamate], the IC50 was below 10 nM and the inhibition at 0.111 µM was 99%.

Turning to `Cc1cc(Cn2ccc(C(=O)c3cncnc3N[C@@H]3C[C@H](COS(N)(=O)=O)[C@@H](O)[C@@H]3F)c2)on1` [Compound I-208, [(1R,2R,3R,4R)-3-fluoro-2-hydroxy-4-{[5-({1-[(3-methylisoxazol-5-yl)methyl]-1H-pyrrol-3-yl}carbonyl)pyrimidin-4-yl]amino)cyolopentyl]methyl sulfomate], the IC50 was below 10 nM and the inhibition at 0.111 µM turned out to be 95%.

On to `NS(=O)(=O)OC[C@H]1C[C@@H](Nc2ncncc2C(=O)c2ccn(Cc3ccc(C(F)(F)F)o3)c2)[C@@H](F)[C@@H]1O` [Compound I-209, [(1R,2R,3R,4R)-3-fluoro-2-hydroxy-4-({5-[(1-{[5-(trifluoromethyl)-2-furyl]methyl}-1H-pyrrol-3-yl)carbonyl]pyrimidin-4-yl}amino)cyclopentyl]methyl sulfamate], for which the IC50 is below 10 nM and the inhibition at 0.111 µM came out at 99%.

Consider `Cc1ccc(Cn2ccc(C(=O)c3cncnc3N[C@@H]3C[C@H](COS(N)(=O)=O)[C@@H](O)C3)n2)cc1F` [Compound I-210, {(1R,2S,4R)-4-[(5-{[1-(3-Fluoro-4-methylbenzyl)-1H-pyrazol-3-yl]carbonyl}pyrimidin-4-yl)amino]-2-hydroxycyclopentyl}methyl sulfamate], for which the half-maximal inhibitory concentration (IC50) is below 10 nM and the inhibition at 0.111 µM came out at 98%.

As to `NS(=O)(=O)OC[C@H]1C[C@@H](Nc2ncncc2C(=O)c2ccn(Cc3ccc(F)c(OC(F)(F)F)c3)c2)C[C@@H]1O` [Compound I-211, [(1R,2S,4R)-4-{[5-({1-[4-fluoro-3-(trifluoromethoxy)benzyl]-1H-pyrrol-3-yl}carbonyl)pyrimidin-4-yl]amino}-2-hydroxycyclopentyl]methyl sulfamate], the IC50 is below 10 nM and the inhibition at 0.111 µM was 97%.

For orientation: IC50 means the concentration that inhibits the measured activity by half. What is called inhibition is the relative decrease from the control value, in per cent.
